Laboratory results as given in ChEMBL document CHEMBL2331527, “New imidazo[1,2-a]pyridines carrying active pharmacophores: synthesis and anticonvulsant studies” (Bioorg Med Chem Lett, 2013).

Legend:
Mus musculus [1] = experiment: Anticonvulsant activity against subcutaneous pentylenetetrazole-induced seizures in mouse assessed as onset time for clonic seizures at 10 mg/kg, ip measured after 0.5 hrs by pentylene tetrazole test (reference value: 59.2 +/-1.11 secs); type: functional
Mus musculus [2] = experiment: Anticonvulsant activity against maximal electroshock-induced seizures in NMRI mouse assessed as duration of tonic hindlimb extension at 10 mg/kg, ip measured after 0.5 hrs by maximal electroshock test (reference value: 15.35 +/-0.60%); type: functional; conditions: route intraperitoneal
Mus musculus [3] = experiment: Anticonvulsant activity against subcutaneous pentylenetetrazole-induced seizures in mouse assessed as onset time for tonic seizures at 10 mg/kg, ip measured after 0.5 hrs by pentylene tetrazole test (reference value: 385.5 +/-10.90 secs); type: functional; conditions: route intraperitoneal
Mus musculus [4] = experiment: Anticonvulsant activity against maximal electroshock-induced seizures in NMRI mouse assessed as latency period for the onset of clonus at 10 mg/kg, ip measured after 0.5 hrs by maximal electroshock test (reference value: 2.18 +/-0.47 secs); type: functional; conditions: route intraperitoneal
Mus musculus [5] = experiment: Neurotoxicity in ip dosed mouse assessed as minimum effective dose required to induce motor impairment measured after 4 hrs by Rotarod test; type: toxicity, organism-based; conditions: in vivo
Mus musculus [6] = experiment: Neurotoxicity in ip dosed mouse assessed as minimum effective dose required to induce motor impairment measured after 0.5 hrs by Rotarod test; type: toxicity, organism-based; conditions: in vivo

SMILES	Time (Mus musculus [1]) [s]	Time (Mus musculus [2]) [s]	Time (Mus musculus [3]) [s]	Time (Mus musculus [4]) [s]	MED (Mus musculus [5])	MED (Mus musculus [6])
Cc1cccn2c(C3CC(c4ccc(F)cc4)=NN3)c(-c3ccccc3)nc12 (centres undefined)	79.32	7.15	426.8	9.25		
COc1nc(-c2ccc(C)cc2)cc(-c2c(-c3ccccc3)nc3c(C)cccn23)c1C#N	170.7	6.85	595.7	10.9	Non-toxic	Non-toxic
COc1nc(-c2ccccc2)cc(-c2c(-c3ccc(F)cc3)nc3c(C)cccn23)c1C#N	171.5	7.77	596	9.9	Non-toxic	Non-toxic
Cc1cccn2c(C3CC(c4ccc(Cl)cc4)=NN3)c(-c3ccc(F)cc3)nc12 (centres undefined)	158.7	7.21	542.2	9.45	Non-toxic	Non-toxic
Cc1ccc(-c2cc(-c3c(-c4ccc(F)cc4)nc4c(C)cccn34)nc(N)n2)cc1	171.4	8.15	593.2	8.16	Non-toxic	Non-toxic
Cc1cccn2c(C3C=C(c4ccccc4)NC(=S)N3)c(-c3ccc(F)cc3)nc12 (centres undefined)	107	8.13	479.7	8.04	Non-toxic	Non-toxic
Cc1cccn2c(-c3cc(-c4ccc(Cl)cc4)[nH]c(=O)c3C#N)c(-c3ccc(F)cc3)nc12	129.2	6.54	544.7	10.97	Non-toxic	Non-toxic
Cc1cccn2c(C3C=C(c4ccc(F)cc4)NC(=S)N3)c(-c3ccccc3)nc12 (centres undefined)	90.83	6.87	454.7	10.91	Non-toxic	Non-toxic
COc1nc(-c2ccc([N+](=O)[O-])cc2)cc(-c2c(-c3ccccc3)nc3c(C)cccn23)c1C#N	79.32	8.52	426.8	8.72	Non-toxic	Non-toxic
Cc1ccc(C2=CC(c3c(-c4ccccc4)nc4c(C)cccn34)NC(=S)N2)cc1 (centres undefined)	79.34	7.45	426.5	9.75	Non-toxic	Non-toxic
Cc1cccn2c(C3CC(c4ccccc4)=NN3)c(-c3ccc(F)cc3)nc12 (centres undefined)	149.3	6.54	528.2	10.97	Non-toxic	Non-toxic
COc1nc(-c2ccc([N+](=O)[O-])cc2)cc(-c2c(-c3ccc(F)cc3)nc3c(C)cccn23)c1C#N	115.7	7.01	469.2	9.13		
Cc1cccn2c(-c3cc(-c4cccs4)nc(N)n3)c(-c3ccccc3)nc12	79.5	8.71	426.8	8.86	Non-toxic	Non-toxic
Cc1cccn2c(-c3cc(-c4ccccc4)nc(N)n3)c(-c3ccc(F)cc3)nc12	115.7	8.27	469.2	8.11	Non-toxic	Non-toxic
Cc1cccn2c(C3C=C(c4ccc(Cl)cc4)NC(=S)N3)c(-c3ccc(F)cc3)nc12 (centres undefined)	82.5	7.77	435	9.9		
Cc1ccc(-c2nc3c(C)cccn3c2C2CC(c3cccs3)=NN2)cc1 (centres undefined)	117.7	7.27	530.8	9.33	Non-toxic	Non-toxic
COc1nc(-c2ccc(F)cc2)cc(-c2c(-c3ccccc3)nc3c(C)cccn23)c1C#N	90.87	6.96	456.7	10.77	Non-toxic	Non-toxic
Cc1cccn2c(-c3cc(-c4ccc(Cl)cc4)nc(N)n3)c(-c3ccc(F)cc3)nc12	109.7	9.88	480.2	7.95		
COc1nc(-c2ccc(C)cc2)cc(-c2c(-c3ccc(F)cc3)nc3c(C)cccn23)c1C#N	335.3	9.84	611.5	7.94	Non-toxic	Non-toxic
Cc1ccc(C2=NNC(c3c(-c4ccccc4)nc4c(C)cccn34)C2)cc1 (centres undefined)	126.7	7.22	532.5	9.28		
Cc1cccn2c(-c3cc(-c4ccc([N+](=O)[O-])cc4)nc(N)n3)c(-c3ccc(F)cc3)nc12	85.33	8.67	435.8	8.8		
CN1C(=O)CN=C(c2ccccc2)c2cc(Cl)ccc21 [DIAZEPAM]				13.17	Non-toxic	Non-toxic
Cc1ccc(-c2cc(-c3c(-c4ccccc4)nc4c(C)cccn34)nc(N)n2)cc1	90.83	8.52	454.7	8.72	Non-toxic	Non-toxic
Cc1cccn2c(-c3cc(-c4ccc([N+](=O)[O-])cc4)[nH]c(=O)c3C#N)c(-c3ccc(F)cc3)nc12	171.8	6.61	641.5	10.88	100 mg/kg	Non-toxic
